Data from patent publication US11834393B2, “Organic compounds having taste-modifying properties” (GIVAUDAN SA, priority 2013, dated 2023).

Experiments:
[1] = Beef bouillon, evaluation by a panel of experienced tasters; details: 1 ppm dosed to bouillon prepared from bouillon cubes
Procedure: A beef bouillon was prepared using bouillon cubes obtained from a local supermarket.

[2] = Mango flavoured beverage, evaluation by a panel of experienced tasters; details: 1 ppm dosed to mango drink (mango flavour 0.05% w/w, mango juice 0.18% w/w, sugar 8% w/w, citric acid 0.1% w/w)
Procedure: A mango-flavoured beverage was prepared using a standard mango flavour (0.05% w/w), mango juice (0.18% w/w), sugar (8% w/w) and citric acid (0.1% w/w).

SMILES | taste of the beef bouillon compared with the reference (panel) [1] | taste of the mango drink compared with the reference drink (panel) [2]
CCCCCCCCCCCCCCCCCCNC(=O)C(N)CCSC (stereo not shown) [Ex 1, 2-amino-4-(methylthio)-N-octadecylbutanamide] | more salty and more full | 
CCCCCCCCCCCCCCCCCCNC(=O)C1CCCN1 (stereo not shown) [Ex 3, N-octadecylpyrrolidine-2-carboxamide] |  | more over-ripe, more sweet, and more full and had an increased mouthfeel
CCCCCCCCCCCCCCCCCCNC(=O)C1(N)CC1 [Ex 5, 1-amino-N-octadecylcyclopropanecarboxamide] |  | more sweet, more ripe mango, more full and more long-lasting
CCCCCCCCCCCCCCCCNC(=O)CCCN [Ex 7, N-hexadecyl 4-aminobutyramide] | more salty and more umami and was more longlasting | 
